# Source: patent publication US10519177B2, “Heterocyclic compounds and uses thereof” (Plexxikon Inc., priority 2013, dated 2019)
# System: MV-4-11 cells
# Experiment: Oncology cell growth assay MV-4-11 (CellTiter Glo)
# Type: cell-based
# Conditions: Homo sapiens, MV4-11, 72 h; MV-4-11, 3d growth; read-out: Cell activity (IC50 μM) MV-4-11 3d-Growth
# Description: Published bromodomain inhibitors JQ1 and iBET 151 have shown activity in variety of cancer cells such leukemia and lymphoma, multiple myeloma cells, NUT midline carcinoma and glioblastoma cells (Dawson M A et al. 2011; Delmore J E 2011; Chen Z et al. 2013; Filippakopoulos P et al. 2010; Mertz J A et al. 2011; Ott C J et al. 2012). In this study, we test compounds in different cancer cell lines. MV-4-11 and MOLM-13 are AML cell lines harboring a MLL-AF4 and MLL-AF9 translocation, respectively. MM.1S is a multiple myeloma cell line. SK-N-AS, IMR-32 and SK-N-BE(2) are neuroblastoma cell lines. IMR-32 and SK-N-BE(2) cell lines harbor MYCN amplifications.
# MV-4-11, MM.1S, IMR-32, SK-N-AS and SK-N-BE(2) were obtained from ATCC (IL, USA) and MOLM-13 were purchased from DSMZ (Braunschweig, German). Cells are cultured as recommended by their sources. For growth inhibition studies 3000 cells are seeded in wells of a 96-well plate in 75 μL of culture media. After several hours, growth media containing compounds of formula (I) are added to the wells. Compound at a maximal concentration of 5 mM was serially diluted 1:3 for a total of 8 point titration with DMSO as a control. A 1 μL aliquot of each dilution point is added to 249 μL growth media and 75 μL is added to each well containing cells, providing 10 μM compound at the maximum concentration point. The final concentration of DMSO in all wells is 0.2%. Cells are incubated for 72 hours, and 25 μL of CellTiter Glo Reagent (Promega GA, USA) is added to each well. Plates are shaken for approximately 10 minutes and chemiluminescent signal is read on Tecan microplate reader. The measured luminescence correlates directly with cell number.
# All data is normalized to the mean of eight DMSO high control wells on each plate. A four parameter curve fit of the following formula was then applied: Y=a+(b−a)/(1+(x/c)^d) Where ‘a’ is the minimum, ‘b’ is the maximum, ‘c’ is the pIC50 and ‘d’ is the Hill slope. […] Myc Reporter Assay
row,IC50 [µM],SMILES
1,< 1,"Cc1noc(C)c1-c1cnc2c(I)cn(Cc3ccccc3C#N)c2c1 [P-0921, 2-[[6-(3,5-dimethylisoxazol-4-yl)-3-iodo-pyrrolo[3,2-b]pyridin-1-yl]methyl]benzonitrile]"
2,1 to 10,"COC(=O)c1ccc(-c2c[nH]c3cc(-c4c(C)noc4C)cnc23)cc1 [P-1033, methyl 4-[6-(3,5-dimethylisoxazol-4-yl)-1H-pyrrolo[3,2-b]pyridin-3-yl]benzoate]"
3,1 to 10,"Cc1noc(C)c1-c1ccc2c(I)cn([C@@H](C)c3ccccn3)c2c1 [P-1051, 4-[3-iodo-1-[(1S)-1-(2-pyridyl)ethyl]indol-6-yl]-3,5-dimethyl-isoxazole]"

# System: bromodomain
# Experiment: at least one of the bromodomain cell assays of Example 57
# Type: cell-based
# Conditions: at least one of the bromodomain cell assays described in Example 57; read-out: IC50 in at least one of the bromodomain cell assays
row,IC50 [µM],SMILES
1,< 10,"Cc1nnn(C)c1-c1cnc2c(-c3ccc(CC(=O)O)cc3)cn(CC3CCC(F)(F)CC3)c2c1 [P-0811, 2-[4-[1-[(4,4-difluorocyclohexyl)methyl]-6-(3,5-dimethyltriazol-4-yl)pyrrolo[3,2-b]pyridin-3-yl]phenyl]acetic acid]"
2,< 10,"CCOC(=O)c1ccc(-c2cn(CC3CCCCC3)c3cc(-c4c(C)noc4C)cnc23)cc1 [P-0707, ethyl 4-[1-(cyclohexylmethyl)-6-(3,5-dimethylisoxazol-4-yl)pyrrolo[3,2-b]pyridin-3-yl]benzoate]"
3,< 10,"Cc1noc(C)c1-c1cnc2c(-c3ccc(C4(C(=O)O)CC4)cc3)cn(CC3(C)CCCCC3)c2c1 [P-0782, 1-[4-[6-(3,5-dimethylisoxazol-4-yl)-1-[(1-methylcyclohexyl)methyl]pyrrolo[3,2-b]pyridin-3-yl]phenyl]cyclopropanecarboxylic acid]"
4,< 10,"Cc1noc(C)c1-c1ccc2c(-c3cnn(C)c3)cn(S(=O)(=O)c3ccccc3)c2c1 [P-0230, 4-[1-(benzenesulfonyl)-3-(1-methylpyrazol-4-yl)indol-6-yl]-3,5-dimethyl-isoxazole]"
5,< 10,"Cc1noc(C)c1-c1cnc2c(-c3ccc(C(=O)OC(C)C)cc3)cn([C@@H](c3ccccc3)c3ccccn3)c2c1 [P-0717, isopropyl 4-[6-(3,5-dimethylisoxazol-4-yl)-1-[(S)-phenyl(2-pyridyl)methyl]pyrrolo[3,2-b]pyridin-3-yl]benzoate]"
6,< 10,"Cc1cc(-c2cnc3c(-c4ccc(C(=O)OC(C)(C)C)cc4)cn(CC4CCC(F)(F)CC4)c3c2)cn(C)c1=O [P-0612, tert-butyl 4-[1-[(4,4-difluorocyclohexyl)methyl]-6-(1,5-dimethyl-6-oxo-3-pyridyl)pyrrolo[3,2-b]pyridin-3-yl]benzoate]"
7,< 10,"COC(=O)c1ccc(-c2cn([C@H](c3ccccc3)c3ccccn3)c3cc(-c4c(C)noc4C)cnc23)cc1 [P-0726, methyl 4-[6-(3,5-dimethylisoxazol-4-yl)-1-[(R)-phenyl(2-pyridyl)methyl]pyrrolo[3,2-b]pyridin-3-yl]benzoate]"
8,< 10,"COC(=O)c1ccc(-c2cn(CC3CCCCC3)c3cc(-c4c(C)noc4C)cnc23)cc1 [P-0706, methyl 4-[1-(cyclohexylmethyl)-6-(3,5-dimethylisoxazol-4-yl)pyrrolo[3,2-b]pyridin-3-yl]benzoate]"
9,< 10,"Cc1noc(C)c1-c1ccc2c(-c3ccc(C(=O)O)cc3)cn(CC3(C)CCCCC3)c2c1 [P-0779, 4-[6-(3,5-dimethylisoxazol-4-yl)-1-[(1-methylcyclohexyl)methyl]indol-3-yl]benzoic acid]"
10,< 10,"Cc1noc(C)c1-c1cnc2c(c1)c(C(c1ccccc1)c1ccccc1)cn2-c1ccc(C(=O)O)cn1 [P-0742, 6-[3-benzhydryl-5-(3,5-dimethylisoxazol-4-yl)pyrrolo[2,3-b]pyridin-1-yl]pyridine-3-carboxylic acid]"
11,< 10,"Cc1noc(C)c1-c1ccc2c(-c3ccc([N+](=O)[O-])nc3)cn(CC3CCC(F)(F)CC3)c2c1 [P-0750, 4-[1-[(4,4-difluorocyclohexyl)methyl]-3-(6-nitro-3-pyridyl)indol-6-yl]-3,5-dimethyl-isoxazol]"
12,< 10,"C[C@@H](c1ccccn1)n1cc(-c2ccc(C(=O)O)cc2)c2ncc(-c3cc(Cl)c(=O)n(C)c3)cc21 [P-0766, 4-[6-(5-chloro-1-methyl-6-oxo-3-pyridyl)-1-[(1S)-1-(2-pyridyl)ethyl]pyrrolo[3,2-b]pyridin-3-yl]benzoic acid]"
13,< 10,"Cc1noc(C)c1-c1cnc2c(-c3ccc(C#N)nc3)cn([C@H](c3ccccc3)c3ccccn3)c2c1 [P-0731, 5-[6-(3,5-dimethylisoxazol-4-yl)-1-[(R)-phenyl(2-pyridyl)methyl]pyrrolo[3,2-b]pyridin-3-yl]pyridine-2-carbonitrile]"
14,< 10,"CCOC(=O)c1ccc(-c2cn([C@@H](c3ccccc3)c3ccccn3)c3cc(-c4c(C)noc4C)cnc23)cc1 [P-0716, ethyl 4-[6-(3,5-dimethylisoxazol-4-yl)-1-[(S)-phenyl(2-pyridyl)methyl]pyrrolo[3,2-b]pyridin-3-yl]benzoate]"
15,< 10,"Cc1noc(C)c1-c1cnc2c(-c3ccc4c(c3)OC(=O)C4)cn(CC3CCC(F)(F)CC3)c2c1 [P-0800, 6-[1-[(4,4-difluorocyclohexyl)methyl]-6-(3,5-dimethylisoxazol-4-yl)pyrrolo[3,2-b]pyridin-3-yl]-3H-benzofuran-2-one]"
16,< 10,Cc1ccc(-c2cn(CC3CCCCC3)c3cc(-c4c(C)noc4C)cnc23)cc1 [P-0622]
17,< 10,"C[C@@H](c1ccccn1)n1cc(-c2ccc(C(=O)O)cc2)c2ccc(-c3cc(Cl)c(=O)n(C)c3)cc21 [P-0765, 4-[6-(5-chloro-1-methyl-6-oxo-3-pyridyl)-1-[(1S)-1-(2-pyridyl)ethyl]indol-3-yl]benzoic acid]"
18,< 10,"Cc1noc(C)c1-c1ccc2c(-c3ccc(C(=O)O)cc3)cn(CC3CCC(F)(F)CC3)c2c1 [P-0745, 4-[1-[(4,4-difluorocyclohexyl)methyl]-6-(3,5-dimethylisoxazol-4-yl)indol-3-yl]benzoic acid]"
19,< 10,"Cc1noc(C)c1-c1cnc2c(-c3ccc4c(c3)OC(=O)C4)cn(CC3CCCCC3)c2c1 [P-0801, 6-[1-(cyclohexylmethyl)-6-(3,5-dimethylisoxazol-4-yl)pyrrolo[3,2-b]pyridin-3-yl]-3H-benzofuran-2-one]"
20,< 10,"Cc1noc(C)c1-c1cnc2c(c1)c(C(c1ccccc1)c1ccccc1)cn2C(F)F [P-0739, 4-[3-benzhydryl-1-(difluoromethyl)pyrrolo[2,3-b]pyridin-5-yl]-3,5-dimethyl-isoxazole]"
21,< 10,"Cc1cc(-c2cnc3c(-c4ccc(C(=O)O)cc4)cn(CC4CCCCC4)c3c2)cn(C)c1=O [P-0759, 4-[1-(cyclohexylmethyl)-6-(1,5-dimethyl-6-oxo-3-pyridyl)pyrrolo[3,2-b]pyridin-3-yl]benzoic acid]"
22,< 10,"Cc1noc(C)c1-c1cnc2c(-c3ccc([N+](=O)[O-])nc3)cn([C@@H](c3ccccc3)c3ccccn3)c2c1 [P-0719, 3,5-dimethyl-4-[3-(6-nitro-3-pyridyl)-1-[(S)-phenyl(2-pyridyl)methyl]pyrrolo[3,2-b]pyridin-6-yl]isoxazole]"
23,< 10,"CCOC(=O)c1ccc(-c2cn([C@H](c3ccccc3)c3ccccn3)c3cc(-c4c(C)noc4C)ccc23)cc1 [P-0756, ethyl 4-[6-(3,5-dimethylisoxazol-4-yl)-1-[(R)-phenyl(2-pyridyl)methyl]indol-3-yl]benzoate]"
24,< 10,"Cc1noc(C)c1-c1cnc2c(-c3ccc(C(C)(C)C(=O)O)cc3)cn(CC3CCCCC3)c2c1 [P-0703, 2-[4-[1-(cyclohexylmethyl)-6-(3,5-dimethylisoxazol-4-yl)pyrrolo[3,2-b]pyridin-3-yl]phenyl]-2-methyl-propanoic acid]"
25,< 10,"COC(=O)c1ccc(-c2cn([C@@H](c3ccccc3)c3ccccn3)c3cc(-c4c(C)noc4C)cnc23)cc1 [P-0715, methyl 4-[6-(3,5-dimethylisoxazol-4-yl)-1-[(S)-phenyl(2-pyridyl)methyl]pyrrolo[3,2-b]pyridin-3-yl]benzoate]"
26,< 10,"COc1cc(-c2cn(CC3(C)CCCCC3)c3cc(-c4c(C)noc4C)cnc23)ccc1C(=O)O [P-0780, 4-[6-(3,5-dimethylisoxazol-4-yl)-1-[(1-methylcyclohexyl)methyl]pyrrolo[3,2-b]pyridin-3-yl]-2-methoxy-benzoic acid]"
27,< 10,"Cc1noc(C)c1-c1cnc2c(-c3ccc(S(C)(=O)=O)cc3)cn(CC3CCC(F)(F)CC3)c2c1 [P-0619, 4-[1-[(4,4-difluorocyclohexyl)methyl]-3-(4-methylsulfonylphenyl)pyrrolo[3,2-b]pyridin-6-yl]-3,5-dimethyl-isoxazole]"
